From ChEMBL document CHEMBL1221373, “Lactarane sesquiterpenoids from Lactarius subvellereus and their cytotoxicity” (Bioorg Med Chem Lett, 2010)
pIC50: −log10 of the molar value.

What was measured:
Assay type in all cases: functional, cell-based
SK-MEL-2 = test: Cytotoxicity against human SK-MEL-2 cells by SRB assay
HCT-15 = test: Cytotoxicity against human HCT15 cells by SRB assay
A549 = test: Cytotoxicity against human A549 cells by SRB assay
SK-OV-3 = test: Cytotoxicity against human SKOV3 cells by SRB assay

SMILES | pIC50 (SK-MEL-2) | pIC50 (HCT-15) | pIC50 (A549) | pIC50 (SK-OV-3)
CC1(C)C[C@@H]2[C@H]([C@H]1O)[C@@](C)(O)CC1=C(C(=O)OC1)[C@H]2O [5-DESOXYLACTAROLIDE B] | < 4.52 | 4.53 | 4.75 | < 4.52
COc1cccc2c1C(=O)c1c(O)c3c(c(O)c1C2=O)C[C@@](O)(C(=O)CO)C[C@@H]3O[C@H]1C[C@H](N)[C@H](O)[C@H](C)O1 [DOXORUBICIN] | 8.70 | 7.55 |  | 9.00
CC1(C)C[C@H]2[C@H](O)c3cocc3C[C@](C)(O)[C@H]2C1 [FURANDIOL] | < 4.52 | < 4.52 | < 4.52 | < 4.52
CC1(C)C[C@H]2[C@H](O)C3=C(C[C@](C)(O)[C@H]2C1)C(=O)OC3O (stereo partly specified) [LACTAROLIDE A] | 4.55 | 4.54 | 4.64 | < 4.52
CC1(C)C[C@H]2[C@H](O)C3=C(C[C@](C)(O)[C@H]2C1)C(=O)OC3 [LACTARORUFIN A] | < 4.52 | 4.68 | 4.57 | < 4.52
C[C@H]1CC2=C(COC2=O)C[C@@H]2[C@@H](O)[C@](C)(CO)C[C@@]21O [SUBVELLEROLACTONES B] | 4.74 | 4.85 | 4.58 | < 4.52
C[C@@H]1[C@@H]2C(=CC3=C(C(=O)O[C@@H]3O)[C@@H]1O)CC(C)(C)[C@@H]2O [SUBVELLEROLACTONES D] | < 4.52 | 4.75 | 4.60 | < 4.52
C[C@@H]1[C@@H]2C(=CC3=C(C(=O)O[C@H]3O)[C@@H]1O)CC(C)(C)[C@@H]2O [SUBVELLEROLACTONES E] | < 4.52 | 4.54 | 4.71 | < 4.52
